The source of these data is ChEMBL document CHEMBL1126088, “Conformational analysis of dopamine D-2 receptor antagonists of the benzamide series in relation to a recently proposed D-2 receptor-interaction model” (J Med Chem, 1992).

What is called ED50 is the dose at which the effect has come halfway, by size or by number of responders.

The assay is described as follows: Effective dose of the compound. The assay is classed as functional.
`CCN(CC)CCNC(=O)c1cc(Cl)c(N)cc1OC` [METOCLOPRAMIDE] came in with an ED50 of 0.75 mg/kg.

`COc1cc(N)c(Cl)cc1C(=O)NC1CCN2CC(c3ccccc3)CC2C1` (stereo not drawn) showed an ED50 of 0.024 mg/kg.

For `COc1cc(N)c(Cl)cc1C(=O)NC1CCN(Cc2ccccc2)CC1` [CLEBOPRIDE], the 50% effect level (ED50) was put at a dose of 0.037 mg/kg. This ED50 lies about 1.5-fold higher than the previous one.
